Test results taken from paper PMC7146544, “Dual Plasmepsin-Targeting Antimalarial Agents Disrupt Multiple Stages of the Malaria Parasite Life Cycle” (Cell Host & Microbe, 2020).

Experiments:
PMIX = assay: CETSA thermal stability assay, PMIX; assay type: binding, P. falciparum
Procedure: Lysate CETSA experiments were conducted essentially as described ([Dziekan et al., 2019]). Samples for CETSA studies were prepared using highly synchronous schizont stage P. falciparum 3D7-PMIX_HA and 3D7-PMX_HA parasites. Late-stage parasites (40–44 h post-invasion) were purified by Percoll density gradient and incubated with 1 μM compound 1 (C1) inhibitor (synthesized in-house) ([Hale et al., 2017]). After 2–4 h incubation, mature schizonts were washed once with PBS and pelleted infected red blood cells were lysed in 20 volumes of 0.15% (w/v) saponin in PBS and incubated on ice for 20 min. Parasites were washed 3 times in ice-cold PBS and the final pellet was resuspended in 10 volumes of lysis buffer (0.4% NP-40 (Roche) / PBS) and lysed by three freezing (dry ice/ethanol bath) - thawing cycles. The lysates were cleared by centrifugation at 16,000 g for 30 min and the supernatant containing soluble parasite proteins kept at −80°C until use. […] After blocking the membrane in 5% non-fat milk in TBST (M-TBST), PMIX_HA and PMX_HA were detected with anti-HA mAb 12CA5 (produced in-house) followed by HRP-conjugated a-mouse IgG Abs (Merck). Blots were developed with ECL Western Blotting Substrate (Thermo Fisher Scientific), and the images were generated and analyzed using ChemiDoc Gel Imaging System and Image Lab Software (Bio-Rad).

P. falciparum 3D7-PMX-HA = assay: EC50 in knock down parasite line 3D7-PMX-HA; assay type: cell-based, Plasmodium falciparum; settings: presence vs absence of 2.5 mM GlcN
[1] = target: T1, P. falciparum aspartic protease, PMV (Plasmodium falciparum, UniProt Q8I6Z5); assay: Peptide cleavage (FRET) assay, PMV; assay type: biochemical; settings: calculated from IC50 with Cheng-Prusoff equation
T1 construct: made in house

[2] = test system: protein processing by PMIX and PMX in P. falciparum; assay: Processing inhibition assays (immunoblot of merozoites and supernatants); assay type: cell-based, Plasmodium falciparum; settings: WM4 40 nM, WM382 2.5 nM; for AMA1 processing in merozoites / ASP processing / MTRAP processing / PMIX processing in parasites / RAP1 processing / RON3 processing / Rh1 processed fragments, release into the supernatant / SERA5 processing: E64 10 μM
Procedure: Processing inhibition assays were performed as previously described ([Boyle et al., 2010]). Synchronized late trophozoite/early schizont cultures to which protease inhibitors had already been added, were passed over LD magnetic columns (Miltenyi Biotech) to remove uninfected erythrocytes. The cysteine protease inhibitor E64 (Sigma) was used at 10 μM. […] A control dish without any protease inhibitor was also included. Parasites were eluted from columns with complete RPMI 1640 culture medium to which the appropriate inhibitor at the same concentration had been added. Eluted parasites were adjusted to 5x10^6 schizonts/mL and 150 ul added per well of a 96-well flat-bottomed culture dish. […] Parasites from each condition were spun at 10000 g/10 min so that merozoite and supernatant fractions could be separately collected. Proteins from both fractions were extracted with Reducing sample buffer and separated on 4%–12% or 3%–8% acrylamide gels (NuPAGE, Invitrogen).

[3] = target: recombinant PMX protein (rPMX) (Plasmodium falciparum, UniProt Q8IAS0); assay type: biochemical, P. falciparum; parameters: full-length enzyme with prodomain and catalytic domain (pro-cat); 8xHis (C); made in house; host or cells: Spodoptera frugiperda (sf21) insect cells, baculovirus, secreted; compound added to the expression culture; settings: insect cell expression
[4] = test system: P. falciparum gametocytes; assay: Standard membrane feeding assay (SMFA), transmission to mosquitoes; assay type: cell-based, Plasmodium falciparum; settings: gametocytes treated day 13 to day 17; oocysts counted day 7 after feeding
Procedure: NF54 P. falciparum cultures were synchronized and maintained as described earlier at 5%–10% parasitemia at 4% hematocrit. Once parasitemia reached 8%–10% rings, parasites were diluted to 0.65% parasitemia in desired volume for the gametocyte cultures (10 mL for Petri dish or 6 × 5 mL for 6-well plate). Gametocyte cultures were supplied with gametocyte media consisted of O+ erythrocyte at 4% hematocrit in Roswell Park Memorial Institute (RPMI) 1640 medium supplemented with 26 mM 4-(2-hydroxyethyl)piperazine-1-ethanesulfonic acid (HEPES), 50 μg/mL hypoxanthine, 2.9% NaHCO3, and 10% heat-inactivated human serum. Sexual stage gametocytes were induced by allowing continuous growth cultures without the addition of fresh human erythrocytes ([Vaughan et al., 2012]). […] Stage V gametocytemia was determined by light microscopy examination of methanol fixed, Giemsa stained thin smear under 1,000 magnification. […]
On day 7 after feeding with gametocyte bloodmeal, infected mosquitoes were aspirated into a cup and anesthetized by incubating them at −20°C for 5 min until immobilized. […] Collected midguts were maintained in 1X phosphate buffered saline (PBS, GIBCO) until stained with mercurochrome for 20 min then placed on a glass slide and counted for oocysts by microscopy.

T1 sequence (Q8I6Z5 whole entry): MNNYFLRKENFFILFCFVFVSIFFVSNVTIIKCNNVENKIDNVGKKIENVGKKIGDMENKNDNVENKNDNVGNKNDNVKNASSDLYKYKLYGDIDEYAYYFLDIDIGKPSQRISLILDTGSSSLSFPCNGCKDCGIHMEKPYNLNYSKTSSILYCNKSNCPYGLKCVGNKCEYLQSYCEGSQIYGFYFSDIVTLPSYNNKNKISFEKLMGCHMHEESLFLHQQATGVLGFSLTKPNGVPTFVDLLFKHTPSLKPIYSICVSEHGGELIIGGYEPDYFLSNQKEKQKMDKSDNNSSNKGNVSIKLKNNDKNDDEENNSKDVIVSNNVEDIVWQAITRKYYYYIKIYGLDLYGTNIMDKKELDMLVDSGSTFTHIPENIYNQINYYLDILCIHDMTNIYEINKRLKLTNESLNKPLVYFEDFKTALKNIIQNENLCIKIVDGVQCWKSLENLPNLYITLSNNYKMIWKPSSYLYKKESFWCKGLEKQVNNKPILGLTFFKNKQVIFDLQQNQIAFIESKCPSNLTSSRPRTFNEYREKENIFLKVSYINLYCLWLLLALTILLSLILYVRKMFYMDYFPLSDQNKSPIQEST
Sequence of recombinant PMX protein (rPMX) (Q8IAS0 27-573): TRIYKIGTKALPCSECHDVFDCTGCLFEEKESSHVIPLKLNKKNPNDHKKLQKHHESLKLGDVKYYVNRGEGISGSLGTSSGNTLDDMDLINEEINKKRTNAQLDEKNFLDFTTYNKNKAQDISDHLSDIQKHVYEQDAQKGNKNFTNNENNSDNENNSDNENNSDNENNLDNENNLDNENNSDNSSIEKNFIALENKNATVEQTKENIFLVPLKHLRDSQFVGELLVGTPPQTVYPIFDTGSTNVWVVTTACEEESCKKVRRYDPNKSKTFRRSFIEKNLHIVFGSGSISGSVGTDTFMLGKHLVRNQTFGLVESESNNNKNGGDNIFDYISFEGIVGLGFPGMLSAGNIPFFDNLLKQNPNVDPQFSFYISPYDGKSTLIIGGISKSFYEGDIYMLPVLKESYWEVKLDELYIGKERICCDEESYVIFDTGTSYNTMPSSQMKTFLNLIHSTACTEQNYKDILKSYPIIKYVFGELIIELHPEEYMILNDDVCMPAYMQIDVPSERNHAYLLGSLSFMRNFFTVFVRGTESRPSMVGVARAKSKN

Row | Structure (SMILES) | effect on thermal stability of PMIX (PMIX) | change of EC50 when PMX expression was decreased (P. falciparum 3D7-PMX-HA) | Ki [1] | AMA1 processing in merozoites [2] | ASP processing [2] | MTRAP processing [2] | PMIX processing in parasites [2] | RAP1 processing [2] | RON3 processing [2] | Rh1 processed fragments, release into the supernatant [2] | SERA5 processing [2] | EBA140 processing [2] | EBA175 processing [2] | EBA181 processing [2] | MSP1 cleavage at the known SUB1 sites [2] | MSP1 cleavage by SUB2 [2] | PMX processing in the parasite [2] | Rh5 processing [2] | Ripr processing [2] | SUB2 second processing event [2] | also measured
1 | CC(NC(=O)c1cccc(C(c2ccccc2)N2C(=N)NC(C)(C(C)C)CC2=O)c1)c1ccccc1 (racemic) [WM4] | no effect on the thermal stability of PMIX | significantly decreased | 19.8 ± 0.5 µM | inhibited cleavage | ASP was processed | did not inhibit its processing | not inhibited | processing of RAP1 to p69 was inhibited | did not block processing | the large fragment cleaved by ROM4 was not released into the supernatant | accumulation of unprocessed SERA5 | inhibited by both compounds | inhibited a cleavage event | a predominant unprocessed form was evident | inhibited | also inhibited | blocked cleavage of PMX | blocked processing of Rh5 | inhibited | inhibited this second processing event | processing of Rh2a, Rh2b and Rh4 [2]: significantly inhibited processing; cleavage of rPMX into catalytic and pro-domain [3]: cleavage was inhibited; oocyst numbers in mosquitoes fed treated gametocytes [4]: no significant reduction in oocyst numbers
2 | CCC1(CC)CC(=O)N([C@@H]2CCOc3ccc(C(=O)N[C@H]4CC(C)(C)Oc5ccccc54)cc32)C(=N)N1 [WM382] | significantly more thermostable | significantly decreased | 13.4 ± 0.62 µM | inhibited cleavage | cleavage was inhibited | inhibited processing, although not completely | inhibited processing | prevented production of both processed forms | did and the full-length protein, as well as an additional processed product (p55), were detected | the large fragment cleaved by ROM4 was not released into the supernatant | accumulation of unprocessed SERA5 | inhibited by both compounds | inhibited a cleavage event | a predominant unprocessed form was evident | inhibited | higher activity | blocked cleavage of PMX | blocked processing of Rh5 | inhibited | inhibited this second processing event | processing of Rh2a, Rh2b and Rh4 [2]: significantly inhibited processing; cleavage of rPMX into catalytic and pro-domain [3]: cleavage was inhibited; oocyst numbers in mosquitoes fed treated gametocytes [4]: potently inhibited oocyst development
